test system: CHIKV 181/clone25; assay: CHIKV cytopathic effect (CPE) protection assay in Vero cells; assay type: cell-based; details: Chikungunya virus; CHIKV 181/clone25, Vero cells, MOI=0.01, 48 hrs, protection from CPE (crystal violet, absorbance 595nm)

Row | SMILES | EC50 [µM]
1 | O=C(CC1Sc2ncccc2NC1=O)NCC1CCCC1 (centres unmarked) [Example 63, N-(cyclopentylmethyl)-2-(2-oxo-2,3-dihydro-1H-pyrido[2,3-b][1,4]thiazin-3-yl)acetamide] | < 10
2 | O=C(CC1Sc2ncccc2NC1=O)NCCc1ccc(F)cc1 (centres unmarked) [Example 57, N-(4-fluorophenethyl)-2-(2-oxo-2,3-dihydro-1H-pyrido[2,3-b][1,4]thiazin-3-yl)acetamide] | 10 to 49.9
3 | Cc1ccc(CNC(=O)CC2Sc3ncccc3N(C)C2=O)cc1 (centres unmarked) [Example 26, 2-(1-methyl-2-oxo-2,3-dihydro-1H-pyrido[2,3-b][1,4]thiazin-3-yl)-N-(4-methylbenzyl)acetamide] | 10 to 49.9
4 | O=C(CC1Sc2ncccc2NC1=O)NCC1(O)CCCCC1 (centres unmarked) [Example 77, N-((1-hydroxycyclohexyl)methyl)-2-(2-oxo-2,3-dihydro-1H-pyrido[2,3-b][1,4]thiazin-3-yl)acetamide] | < 10
5 | CN1C(=O)C(CC(=O)NCc2ccccc2C(F)(F)F)Sc2ncccc21 (centres unmarked) [Example 25, 2-(1-methyl-2-oxo-2,3-dihydro-1H-pyrido[2,3-b][1,4]thiazin-3-yl)-N-(2-(trifluoromethyl)benzyl)aceta-mide] | > 100
6 | O=C(CC1Sc2ncccc2NC1=O)NCC1CCSCC1 (centres unmarked) [Example 47, 2-(2-oxo-2,3-dihydro-1H-pyrido[2,3-b][1,4]thiazin-3-yl)-N-((tetrahydro-2H-thiopyran-4-yl)methyl)acetamide] | 10 to 49.9
7 | CN1C(=O)C(CC(=O)N2CCCCCC2)Sc2ncccc21 (centres unmarked) [Example 31, 3-(2-(azepan-1-yl)-2-oxoethyl)-1-methyl-1H-pyrido[2,3-b][1,4]thiazin-2(3H)-one] | > 100
8 | O=C(CC1Sc2ncccc2NC1=O)NCC1(F)CCCCC1 (centres unmarked) [Example 78, N-((1-fluorocyclohexyl)methyl)-2-(2-oxo-2,3-dihydro-1H-pyrido[2,3-b][1,4]thiazin-3-yl)acetamide] | < 10
9 | CCCCNC(=O)CC1Sc2ncccc2NC1=O (centres unmarked) [Example 70, N-butyl-2-(2-oxo-2,3-dihydro-1H-pyrido[2,3-b][1,4]thiazin-3-yl)acetamide] | 50 to 99.9
10 | CCC(C)(C)CNC(=O)CC1Sc2ncccc2NC1=O (centres unmarked) [Example 75, N-(2,2-dimethylbutyl)-2-(2-oxo-2,3-dihydro-1H-pyrido[2,3-b][1,4]thiazin-3-yl)acetamide] | < 10
11 | CC(C)N1CCN(C(=O)CC2Sc3ncccc3N(C)C2=O)CC1 (centres unmarked) [Example 32, 3-(2-(4-isopropylpiperazin-1-yl)-2-oxoethyl)-1-methyl-1H-pyrido[2,3-b][1,4]thiazin-2(3H)-one] | > 100
12 | O=C(CC1Sc2ncccc2NC1=O)NCc1ccc(F)cc1 (centres unmarked) [Example 56, N-(4-fluorobenzyl)-2-(2-oxo-2,3-dihydro-1H-pyrido[2,3-b][1,4]thiazin-3-yl)acetamide] | < 10
13 | CCC(C)NC(=O)CC1Sc2ncccc2N(C)C1=O (centres unmarked) [Example 16, N-(sec-butyl)-2-(1-methyl-2-oxo-2,3-dihydro-1H-pyrido[2,3-b][1,4]thiazin-3-y)acetamide] | > 100
14 | CC(C)CCCNC(=O)CC1Sc2ncccc2NC1=O (centres unmarked) [Example 67, N-(4-methylpentyl)-2-(2-oxo-2,3-dihydro-1H-pyrido[2,3-b][1,4]thiazin-3-yl)acetamide] | 10 to 49.9
15 | CC1(C)CCC(CNC(=O)CC2Sc3ncccc3NC2=O)CC1 (centres unmarked) [Example 69, N-((4,4-dimethylcyclohexyl)methyl)-2-(2-oxo-2,3-dihydro-1H-pyrido[2,3-b][1,4]thiazin-3-yl)acetamide] | 10 to 49.9
16 | CCN1C(=O)C(CC(=O)NCC2CCCCC2)Sc2ncccc21 (centres unmarked) [Example 44, N-(cyclohexylmethyl)-2-(1-ethyl-2-oxo-2,3-dihydro-1H-pyrido[2,3-b][1,4]thiazin-3-yl)acetamide] | 10 to 49.9
17 | O=C(CC1Sc2ccccc2NC1=O)NCC1CCCCC1 (centres unmarked) [Example 59, N-(cyclohexylmethyl)-2-(3-oxo-3,4-dihydro-2H-benzo[b][1,4]thiazin-2-yl)acetamide] | > 100
18 | CN1C(=O)C(CC(=O)NCc2cccs2)Sc2ncccc21 (centres unmarked) [Example 41, 2-(1-methyl-2-oxo-2,3-dihydro-1H-pyrido[2,3-b][1,4]thiazin-3-yl)-N-(thiophen-2-ylmethyl)acetamide] | 10 to 49.9
19 | O=C(CC1Sc2ncccc2NC1=O)NCC1CC=CCC1 (centres unmarked) [Example 86, N-(cyclohex-3-en-1-ylmethyl)-2-(2-oxo-2,3-dihydro-1H-pyrido[2,3-b][1,4]thiazin-3-yl)acetamide] | < 10
20 | Cc1ccc(CNC(=O)CC2Sc3ncccc3N(C)C2=O)o1 (centres unmarked) [Example 33, 2-(1-methyl-2-oxo-2,3-dihydro-1H-pyrido[2,3-b][1,4]thiazin-3-yl)-N-((5-methylfuran-2-yl)methyl)acetamide] | > 100
21 | CCCN1CCN(C(=O)CC2Sc3ncccc3N(C)C2=O)CC1 (centres unmarked) [Example 34, 1-methyl-3-(2-oxo-2-(4-propylpiperazin-1-yl)ethyl)-1H-pyrido[2,3-b][1,4]thiazin-2(3H)-one] | > 100
22 | O=C(CC1Sc2ncccc2NC1=O)NCc1cccc(Cl)c1 (centres unmarked) [Example 54, N-(3-chlorobenzyl)-2-(2-oxo-2,3-dihydro-1H-pyrido[2,3-b][1,4]thiazin-3-yl)acetamide] | > 100

Row | SMILES | EC50 [µM]
23 | O=C(CC1Cc2ncccc2NC1=O)NCC1CCCCC1 (centres unmarked) [Example 88, N-(cyclohexylmethyl)-2-(2-oxo-1,2,3,4-tetrahydro-1,5-naphthyridin-3-yl)acetamide] | 10 to 49.9
24 | O=C(CC1Sc2ncccc2NC1=O)NCc1ccc(F)c(F)c1 (centres unmarked) [Example 50, N-(3,4-difluorobenzyl)-2-(2-oxo-2,3-dihydro-1H-pyrido[2,3-b][1,4]thiazin-3-yl)acetamide] | 10 to 49.9
25 | CCC1(CNC(=O)CC2Sc3ncccc3NC2=O)CCCCC1 (centres unmarked) [Example 76, N-((1-ethylcyclohexyl)methyl)-2-(2-oxo-2,3-dihydro-1H-pyrido[2,3-b][1,4]thiazin-3-yl)acetamide] | < 10
26 | COCCCNC(=O)CC1Sc2ncccc2N(C)C1=O (centres unmarked) [Example 21, N-(3-methoxypropyl)-2-(1-methyl-2-oxo-2,3-dihydro-1H-pyrido[2,3-b][1,4]thiazin-3-yl)acetamide] | > 100
27 | O=C(CC1Sc2ncccc2NC1=O)NCC1CCC(O)CC1 (centres unmarked) [Example 4, N-((4-hydroxycyclohexyl)methyl)-2-(2-oxo-2,3-dihydro-1H-pyrido[2,3-b][1,4]thiazin-3-yl)acetamide] | > 100
28 | CC(C)NC(=O)CC1Sc2ncccc2N(C)C1=O (centres unmarked) [Example 10, N-isopropyl-2-(1-methyl-2-oxo-2,3-dihydro-1H-pyrido[2,3-b][1,4]thiazin-3-yl)acetamide] | > 100
29 | O=C(CC1CCCCC1)NCC1Sc2ncccc2NC1=O (centres unmarked) [Example 73, 2-cyclohexyl-N-((2-oxo-2,3-dihydro-1H-pyrido[2,3-b][1,4]thiazin-3-yl)methyl)acetamide] | 10 to 49.9
30 | CN1C(=O)C(CC(=O)NC2CCCC2)Sc2ncccc21 (centres unmarked) [Example 22, N-cyclopentyl-2-(1-methyl-2-oxo-2,3-dihydro-1H-pyrido[2,3-b][1,4]thiazin-3-yl)acetamide] | 50 to 99.9
31 | CCN1C(=O)C(CC(=O)N2CCCCCC2)Sc2ncccc21 (centres unmarked) [Example 45, 3-(2-(azepan-1-yl)-2-oxoethyl)-1-ethyl-1H-pyrido[2,3-b][1,4]thiazin-2(3H)-one] | > 100
32 | O=C(CC1Sc2ncccc2NC1=O)NCC1CCCCCC1 (centres unmarked) [Example 62, N-(cycloheptylmethyl)-2-(2-oxo-2,3-dihydro-1H-pyrido[2,3-b][1,4]thiazin-3-yl)acetamide] | 10 to 49.9
33 | CN1CCN(C(=O)CC2Sc3ncccc3N(C)C2=O)CC1 (centres unmarked) [Example 8, 1-methyl-3-(2-(4-methylpiperazin-1-yl)-2-oxoethyl)-1H-pyrido[2,3-b][1,4]thiazin-2(3H)-one] | > 100
34 | O=C(CC1Sc2ncccc2NC1=O)NCCCC(F)(F)F (centres unmarked) [Example 72, 2-(2-oxo-2,3-dihydro-1H-pyrido[2,3-b][1,4]thiazin-3-yl)-N-(4,4,4-trifluorobutyl)acetamide] | > 100
35 | O=C(O)CC1Sc2ncccc2NC1=O (centres unmarked) [Example 5, 2-(2-oxo-2,3-dihydro-1H-pyrido[2,3-b][1,4]thiazin-3-yl)acetic acid] | > 100
36 | CC(NC(=O)CC1Sc2ncccc2N(C)C1=O)c1ccccc1 (centres unmarked) [Example 17, 2-(1-methyl-2-oxo-2,3-dihydro-1H-pyrido[2,3-b][1,4]thiazin-3-yl)-N-(1-phenylethyl)acetamide] | > 100
37 | CC1CCCN(C(=O)CC2Sc3ncccc3N(C)C2=O)C1 (centres unmarked) [Example 35, 1-methyl-3-(2-(3-methylpiperidin-1-yl)-2-oxoethyl)-1H-pyrido[2,3-b][1,4]thiazin-2(3H)-one] | > 100
38 | CN1C(=O)C(CC(=O)NC2CCCCC2)Sc2ncccc21 (centres unmarked) [Example 19, N-cyclohexyl-2-(1-methyl-2-oxo-2,3-dihydro-1H-pyrido[2,3-b][1,4]thiazin-3-yl)acetamide] | > 100
39 | COC1(CNC(=O)CC2Sc3ncccc3NC2=O)CCCCC1 (centres unmarked) [Example 79, N-((1-methoxycyclohexyl)methyl)-2-(2-oxo-2,3-dihydro-1H-pyrido[2,3-b][1,4]thiazin-3-yl)acetamide] | < 10
40 | O=C(CC1Sc2ncccc2NC1=O)NCc1ccc(Cl)c(Cl)c1 (centres unmarked) [Example 49, N-(3,4-dichlorobenzyl)-2-(2-oxo-2,3-dihydro-1H-pyrido[2,3-b][1,4]thiazin-3-yl)acetamide] | > 100
41 | CN1C(=O)C(CC(=O)NCc2ccco2)Sc2ncccc21 (centres unmarked) [Example 30, N-(furan-2-ylmethyl)-2-(1-methyl-2-oxo-2,3-dihydro-1H-pyrido[2,3-b][1,4]thiazin-3-yl)acetamide] | > 100
42 | COC(=O)CC1Sc2ncccc2NC1=O (centres unmarked) [Example 3, methyl 2-(2-oxo-2,3-dihydro-1H-pyrido[2,3-b][1,4]thiazin-3-yl)acetate] | > 100
43 | CCN1CCN(C(=O)CC2Sc3ncccc3N(C)C2=O)CC1 (centres unmarked) [Example 11, 3-(2-(4-ethylpiperazin-1-yl)-2-oxoethyl)-1-methyl-1H-pyrido[2,3-b][1,4]thiazin-2(3H)-one] | > 100
44 | CN1C(=O)C(CC(=O)NCC2CCCO2)Sc2ncccc21 (centres unmarked) [Example 9, 2-(1-methyl-2-oxo-2,3-dihydro-1H-pyrido[2,3-b][1,4]thiazin-3-yl)-N-((tetrahydrofuran-2-yl)methyl)acetamide] | > 100

From patent US20220233549A1, “METHOD FOR ALPHAVIRUS INHIBITION” (priority 2019, published 2022)
